From patent publication US20090269734A1, “METHOD FOR DETERMINATION OF RECOGNITION SPECIFICITY OF VIRUS FOR RECEPTOR SUGAR CHAIN” (priority 2005, published 2009)

Columns and labels:
[1] = system: human B virus: B/Lee/40; format: binding, human influenza B virus
[2] = system: human A virus: A/Memphis/1/71/(H3N2); format: binding, human influenza A virus
[3] = system: avian A virus: A/duck/Hong Kong/24/76 (H3N2); format: binding, avian influenza A virus

Substance	recognition of the polymer with sialo-oligosaccharide by the human influenza B virus (absorbency at 492 nm) [1]	recognition of the polymer with sialo-oligosaccharide by the human influenza A virus (absorbency at 492 nm) [2]	recognition of the polymer with sialo-oligosaccharide by the avian influenza A virus (absorbency at 492 nm) [3]
Poly (Neu5Ac α2-6Gal β1-4GlcNAc β-pAP/α-PGA)	strongly recognizes	strongly recognizes	weak
Poly (Neu5Ac α2-3Gal β1-4GlcNAc β-pAP/α-PGA)	weak	weak	strongly recognizes
